In patent US20240116985A1, “STAPLED PEPTIDES AND METHODS THEREOF” (priority 2020, published 2024):
pIC50: −log10 of the molar value. Values after ≈ are worked out from the molar mass of the structure shown. Where two headings read alike, the source gives them in different places.

Experiments:
[1] = CHI Log D procedure; format: physicochemical; settings: for chromatographic logD: pH 7.4, CHI Log D; for CHI Log D: pH 7.4
[2] = target: T1, full-length beta-Catenin (Uniprot ID P35222) (Homo sapiens, UniProt P35222); test: Fluorescence polarization IC50 (beta-catenin / 5FAM-TCF4 10-53 competition); format: binding
T1 construct: 10 nM full-length beta-Catenin (Uniprot ID P35222)
T1 sequence (P35222 1-781): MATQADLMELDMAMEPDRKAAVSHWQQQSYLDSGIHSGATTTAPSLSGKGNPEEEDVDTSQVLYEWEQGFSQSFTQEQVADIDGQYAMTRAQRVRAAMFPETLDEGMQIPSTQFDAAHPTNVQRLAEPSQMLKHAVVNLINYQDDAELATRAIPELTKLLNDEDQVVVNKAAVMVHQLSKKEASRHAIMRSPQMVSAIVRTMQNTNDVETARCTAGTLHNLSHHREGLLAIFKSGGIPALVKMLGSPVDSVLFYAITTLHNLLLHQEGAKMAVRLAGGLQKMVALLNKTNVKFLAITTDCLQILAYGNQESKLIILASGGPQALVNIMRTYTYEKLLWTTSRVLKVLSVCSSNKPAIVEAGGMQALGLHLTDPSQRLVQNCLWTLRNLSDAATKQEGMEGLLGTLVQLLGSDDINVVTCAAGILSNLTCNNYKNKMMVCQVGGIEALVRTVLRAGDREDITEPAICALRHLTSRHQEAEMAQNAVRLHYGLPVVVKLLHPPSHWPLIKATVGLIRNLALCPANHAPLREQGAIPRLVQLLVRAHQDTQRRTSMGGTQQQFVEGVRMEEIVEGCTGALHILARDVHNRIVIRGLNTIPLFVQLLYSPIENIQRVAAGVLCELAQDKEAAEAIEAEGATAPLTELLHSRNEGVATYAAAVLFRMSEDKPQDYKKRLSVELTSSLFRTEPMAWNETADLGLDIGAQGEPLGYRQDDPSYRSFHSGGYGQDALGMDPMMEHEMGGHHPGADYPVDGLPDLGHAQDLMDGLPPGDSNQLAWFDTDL

[3] = Solubility in PBS; format: physicochemical
Summary of the method: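 Solubility is derived from HPLC peak areas: the ratio of the PBS supernatant peak to a 50 μM DMSO peptide peak, times 50 uM.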

[4] = target: T2, beta-catenin/TCF4 engagement (Homo sapiens, UniProt P35222); test: Nano-BRET target engagement assay (B-cat-Halo & TCF4-Luc in HEK293 cells); format: cell-based; settings: absolute IC50; read-out: NanoBRET Abs IC50
T2 construct: expressed in transfected cells; host or cells: HEK293
T2 sequence (P35222 1-781): T1 sequence (P35222 1-781)

[5] = fluorescence polarization, read-out: beta-Catenin FP IC50

Row | chromatographic logD [1] | pIC50 [2, 5] | Solubility ([3]; Solubility (uM)) | pIC50 [4] | Solubility [3] | CHI Log D [1] | pIC50 ([2]; read-out: FP EC50) | SMILES
1 | 1.76 | 7.55 | 49 µM (≈ 91.6 µg/mL) | < 4.70 | – | – | – | CC(=O)N1CCC[C@]12CC=CCCCC1(CCCC=CCCCOC(=O)N3CC[C@@](C(=O)N[C@@H](Cc4ccccc4)C(=O)N[C@@H](Cc4csc5ccccc45)C(=O)N[C@@H](CCC(N)=O)C(N)=O)(C3)NC(=O)[C@H](CC(N)=O)NC(=O)[C@H](Cc3ccccc3)NC(=O)[C@H](C)NC(=O)[C@H](C)NC(=O)[C@H](CCC(=O)O)NC(=O)[C@H](CC(=O)O)NC1=O)NC(=O)[C@H](C)NC(=O)[C@H](CC(=O)O)NC2=O (stereo partly drawn) [I-462, Ac-PL3-Asp-Ala-B5-Asp-Glu-Ala-Ala-Phe-Asn-PyrS2-Phe-BztA-Gln-NH2]
2 | 2.3 | 7.47 | – | 4.95 | 50 µM (≈ 94.5 µg/mL) | – | – | CC[C@H](C)[C@@H]1NC(=O)[C@H](CC(=O)O)NC(=O)[C@]2(CC=CCCCC3(CCCC=CCCCCCC[C@@](C)(C(=O)N[C@@H](Cc4ccccc4)C(=O)N[C@@H](Cc4csc5ccccc45)C(=O)N[C@@H](CCC(N)=O)C(N)=O)NC(=O)[C@H](CCC(N)=O)NC(=O)[C@H](Cc4cccs4)NC(=O)[C@H](C)NC(=O)[C@H](C)NC(=O)[C@H](CCC(=O)O)NC(=O)[C@H](CC(=O)O)NC3=O)NC1=O)CCCN2C(C)=O (stereo partly drawn) [I-485, Ac-PL3-Asp-Ile-B5-Asp-Glu-Ala-Ala-2Thi-Gln-S8-Phe-BztA-Gln-NH2]
3 | 2.41 | 7.60 | – | 5.05 | 10 µM (≈ 18.9 µg/mL) | – | – | CC(=O)N1CCC[C@]12CC=CCCCC1(CCCC=CCCCCCC[C@@](C)(C(=O)N[C@@H](Cc3ccccc3)C(=O)N[C@@H](Cc3csc4ccccc34)C(=O)N[C@@H](Cc3c[nH]cn3)C(N)=O)NC(=O)[C@H](CCC(N)=O)NC(=O)[C@H](Cc3ccccc3)NC(=O)[C@H](C)NC(=O)[C@H](C)NC(=O)[C@H](CCC(=O)O)NC(=O)[C@H](CC(=O)O)NC1=O)NC(=O)[C@H](CC(C)C)NC(=O)[C@H](CC(=O)O)NC2=O (stereo partly drawn) [I-506, Ac-PL3-Asp-Leu-B5-Asp-Glu-Ala-Ala-Phe-Gln-S8-Phe-BztA-His-NH2]
4 | 2.44 | 7.70 | 17 µM (≈ 32.4 µg/mL) | 4.91 | – | – | – | CC[C@H](C)[C@@H]1NC(=O)[C@H](CC(=O)O)NC(=O)[C@]2(CC=CCCCC3(CCCC=CCCCCCC[C@@](C)(C(=O)N[C@@H](Cc4ccccc4OC)C(=O)N[C@@H](Cc4csc5ccccc45)C(=O)N[C@@H](Cc4c[nH]cn4)C(N)=O)NC(=O)[C@H](CC(N)=O)NC(=O)[C@H](Cc4ccccc4)NC(=O)[C@H](C)NC(=O)[C@H](C)NC(=O)[C@H](CCC(=O)O)NC(=O)[C@H](CC(=O)O)NC3=O)NC1=O)CCCN2C(C)=O (stereo partly drawn) [I-512, Ac-PL3-Asp-Ile-B5-Asp-Glu-Ala-Ala-Phe-Asn-S8-2OMeF-BztA-His-NH2]
5 | 1.91 | 7.52 | – | < 4.70 | 50 µM (≈ 96.1 µg/mL) | – | – | CC[C@H](C)[C@@H]1NC(=O)[C@H](CC(=O)O)NC(=O)[C@]2(CC=CCCCC3(CCCC=CCCCCCC[C@@](C)(C(=O)N[C@@H](Cc4ccccc4C(N)=O)C(=O)N[C@@H](Cc4csc5ccccc45)C(=O)N[C@@H](Cc4c[nH]cn4)C(N)=O)NC(=O)[C@H](CC(N)=O)NC(=O)[C@H](Cc4ccccc4)NC(=O)[C@H](C)NC(=O)[C@H](C)NC(=O)[C@H](CCC(=O)O)NC(=O)[C@H](CC(=O)O)NC3=O)NC1=O)CCCN2C(C)=O (stereo partly drawn) [I-514, Ac-PL3-Asp-Ile-B5-Asp-Glu-Ala-Ala-Phe-Asn-S8-2CBMF-BztA-His-NH2]
6 | 2.42 | 7.82 | 15 µM (≈ 28.3 µg/mL) | 5.01 | – | – | – | CC[C@H](C)[C@@H]1NC(=O)[C@H](CC(=O)O)NC(=O)[C@]2(CC=CCCCC3(CCCC=CCCCCCC[C@@](C)(C(=O)N[C@@H](Cc4ccsc4)C(=O)N[C@@H](Cc4csc5ccccc45)C(=O)N[C@@H](Cc4c[nH]cn4)C(N)=O)NC(=O)[C@H](CC(N)=O)NC(=O)[C@H](Cc4ccccc4)NC(=O)[C@H](C)NC(=O)[C@H](C)NC(=O)[C@H](CCC(=O)O)NC(=O)[C@H](CC(=O)O)NC3=O)NC1=O)CCCN2C(C)=O (stereo partly drawn) [I-517, Ac-PL3-Asp-Ile-B5-Asp-Glu-Ala-Ala-Phe-Asn-S8-3Thi-BztA-His-NH2]
7 | – | 7.48 | – | 4.54 | 50 µM (≈ 91.7 µg/mL) | 2.004 | 7.48 | CC(=O)N1CCC[C@]12CC=CCCCC1(CCCC=CCCCCCC[C@@](C)(C(=O)N[C@@H](Cc3ccsc3)C(=O)N[C@@H](Cc3csc4ccccc34)C(=O)N[C@@H](CCC(N)=O)C(N)=O)NC(=O)[C@H](CC(N)=O)NC(=O)[C@H](Cc3ccccc3)NC(=O)[C@H](C)NC(=O)[C@H](C)NC(=O)[C@H](CCC(=O)O)NC(=O)[C@H](CC(=O)O)NC1=O)NC(=O)[C@H](C)NC(=O)[C@H](CC(=O)O)NC2=O (stereo partly drawn) [I-519, Ac-PL3-Asp-Ala-B5-Asp-Glu-Ala-Ala-Phe-Asn-S8-3Thi-BztA-Gln-NH2]
8 | – | 7.64 | – | 4.81 | 50 µM (≈ 93.8 µg/mL) | 2.351 | 7.64 | CC[C@H](C)[C@@H]1NC(=O)[C@H](CC(=O)O)NC(=O)[C@]2(CC=CCCCC3(CCCC=CCCCCCC[C@@](C)(C(=O)N[C@@H](Cc4ccsc4)C(=O)N[C@@H](Cc4csc5ccccc45)C(=O)N[C@@H](CCC(N)=O)C(N)=O)NC(=O)[C@H](CC(N)=O)NC(=O)[C@H](Cc4ccccc4)NC(=O)[C@H](C)NC(=O)[C@H](C)NC(=O)[C@H](CCC(=O)O)NC(=O)[C@H](CC(=O)O)NC3=O)NC1=O)CCCN2C(C)=O (stereo partly drawn) [I-521, Ac-PL3-Asp-Ile-B5-Asp-Glu-Ala-Ala-Phe-Asn-S8-3Thi-BztA-Gln-NH2]
9 | 2.47 | 7.49 | 28 µM (≈ 52.6 µg/mL) | 4.77 | – | – | – | CC(=O)N1CCC[C@]12CC=CCCCC1(CCCC=CCCCCCC[C@@](C)(C(=O)N[C@@H](Cc3ccccc3)C(=O)N[C@@H](Cc3csc4ccccc34)C(=O)N[C@@H](Cc3c[nH]cn3)C(N)=O)NC(=O)[C@H](CC(N)=O)NC(=O)[C@H](Cc3ccccc3)NC(=O)[C@H](C)NC(=O)[C@H](C)NC(=O)[C@H](CCC(=O)O)NC(=O)[C@H](CC(=O)O)NC1=O)NC(=O)[C@H](CC(C)C)NC(=O)[C@H](CC(=O)O)NC2=O (stereo partly drawn) [I-543, Ac-PL3-Asp-Leu-B5-Asp-Glu-Ala-Ala-Phe-Asn-S8-Phe-BztA-His-NH2]
10 | 2.48 | 7.62 | 48 µM (≈ 91.1 µg/mL) | 5.34 | – | – | – | CC(=O)N1CCC[C@]12CC=CCCCC1(CCCC=CCCCCCC[C@@](C)(C(=O)N[C@@H](Cc3ccccc3)C(=O)N[C@@H](Cc3csc4ccccc34)C(=O)N[C@@H](CCC(N)=O)C(N)=O)NC(=O)[C@H](CCC(N)=O)NC(=O)[C@H](Cc3ccccc3)NC(=O)[C@H](C)NC(=O)[C@H](C)NC(=O)[C@H](CCC(=O)O)NC(=O)[C@H](CC(=O)O)NC1=O)NC(=O)[C@H](CC(C)(C)C)NC(=O)[C@H](CC(=O)O)NC2=O (stereo partly drawn) [I-544, Ac-PL3-Asp-Npg-B5-Asp-Glu-Ala-Ala-Phe-Gln-S8-Phe-BztA-Gln-NH2]
11 | 2.57 | 7.68 | 46 µM (≈ 87.3 µg/mL) | 5.46 | – | – | – | CC(=O)N1CCC[C@]12CC=CCCCC1(CCCC=CCCCCCC[C@@](C)(C(=O)N[C@@H](Cc3ccccc3)C(=O)N[C@@H](Cc3csc4ccccc34)C(=O)N[C@@H](CCC(N)=O)C(N)=O)NC(=O)[C@H](CCC(N)=O)NC(=O)[C@H](Cc3ccccc3)NC(=O)[C@H](C)NC(=O)[C@H](C)NC(=O)[C@H](CCC(=O)O)NC(=O)[C@H](CC(=O)O)NC1=O)NC(=O)[C@H](CCC(C)C)NC(=O)[C@H](CC(=O)O)NC2=O (stereo partly drawn) [I-545, Ac-PL3-Asp-hLeu-B5-Asp-Glu-Ala-Ala-Phe-Gln-S8-Phe-BztA-Gln-NH2]
12 | 2.4 | 7.80 | – | 4.92 | 50 µM (≈ 93.5 µg/mL) | – | – | CC(=O)N1CCC[C@]12CC=CCCCC1(CCCC=CCCCCCC[C@@](C)(C(=O)N[C@@H](Cc3ccccc3)C(=O)N[C@@H](Cc3csc4ccccc34)C(=O)N[C@@H](CCC(N)=O)C(N)=O)NC(=O)[C@H](CC(N)=O)NC(=O)[C@H](Cc3ccccc3)NC(=O)[C@H](C)NC(=O)[C@H](C)NC(=O)[C@H](CC(=O)O)NC(=O)[C@H](CC(=O)O)NC1=O)NC(=O)[C@H](CC(C)(C)C)NC(=O)[C@H](CC(=O)O)NC2=O (stereo partly drawn) [I-546, Ac-PL3-Asp-Npg-B5-Asp-Asp-Ala-Ala-Phe-Asn-S8-Phe-BztA-Gln-NH2]
